Results reported in patent US20110207760A1, “SN-38 COMPOSITIONS” (priority 2010, published 2011).

Experiments:
topoisomerase I enzyme = molecular target: T1, topoisomerase I enzyme (Homo sapiens, UniProt P11387); conditions: estimated; times more active than irinotecan; cited from earlier work
T1 sequence (P11387 1-765): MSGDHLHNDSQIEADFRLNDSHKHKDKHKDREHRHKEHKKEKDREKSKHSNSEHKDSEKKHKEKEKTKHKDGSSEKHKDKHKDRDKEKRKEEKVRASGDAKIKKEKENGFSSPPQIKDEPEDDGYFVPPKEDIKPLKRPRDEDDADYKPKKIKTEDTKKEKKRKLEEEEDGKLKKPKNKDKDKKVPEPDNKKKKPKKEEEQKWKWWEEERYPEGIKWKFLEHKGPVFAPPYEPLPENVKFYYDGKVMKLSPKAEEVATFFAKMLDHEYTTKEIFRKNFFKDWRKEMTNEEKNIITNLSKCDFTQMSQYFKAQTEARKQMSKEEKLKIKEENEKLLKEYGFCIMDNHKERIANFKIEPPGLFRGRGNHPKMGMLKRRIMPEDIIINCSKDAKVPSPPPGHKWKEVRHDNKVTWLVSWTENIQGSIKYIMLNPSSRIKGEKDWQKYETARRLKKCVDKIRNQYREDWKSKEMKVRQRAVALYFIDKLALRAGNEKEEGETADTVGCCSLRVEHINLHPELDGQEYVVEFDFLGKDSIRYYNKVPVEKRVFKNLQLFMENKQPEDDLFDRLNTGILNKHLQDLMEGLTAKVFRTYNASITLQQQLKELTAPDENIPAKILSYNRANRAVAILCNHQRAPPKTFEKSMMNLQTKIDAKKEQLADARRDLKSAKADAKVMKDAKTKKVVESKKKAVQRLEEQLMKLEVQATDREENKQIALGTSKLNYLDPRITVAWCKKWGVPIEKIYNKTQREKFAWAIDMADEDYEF

[1] = test system: Human Colon Carcinoma LoVo DX Cells; assay: Growth of subcutaneous solid tumor of LoVo DX cells in mice; assay type: in vivo, Balb/c mice; conditions: treated group, (SEM); for Tumor volume: SN-38 4.5 mg/kg in 20% SBECD i.p. twice daily; for Tumor volume increase: relative to day 0 of treatment
From the text: Lovo Dx cells (2.5×10^6 cells per an injection) in culture medium with 30% Matrigel were subcutaneously inoculated at 2 sides of the flank (in the mid-flank) of each of 15 Balb/c mice. 20 days after inoculation the animals were randomly divided into 2 groups: control (8 mice) and treated (7 animals). On day 21, 24, 27 and 30 after inoculation (days 1, 4, 7, and 10 of treatment), twice daily, at 10 am and at 4 pm, the animals received intraperitoneal injections. Control animals received each time injection of 0.49 mL of 0.9% saline. Treated animals received each time injection of SN-38 solution in 20% SBECD (w/w), 4.5 mg/kg of SN-38. The SN-38 solution for the treatment was prepared by the dilution of concentrated composition of the Example 1 with water. Tumor sizes and body weight of each animal was monitored during treatment. The results represented as average tumor volume estimated from measurements of tumor diameters (V=0.5*D1*D2*D2, where Dl and D2 are longer and shorter diameter of the tumor) are presented in Table 7 below (the standard error of mean is in parentheses).

[2] = Dissolution of SN-38 in 60% (w/w) aqueous SBECD at 34° C. (HPLC); assay type: physicochemical; conditions: Example 2: 60% (w/w) aqueous SBECD, 48 hours, filtered
Protocol: Aliquots of the resultant SN-38 composition in aqueous SBECD were diluted 6 times with water, and further diluted with 10% (w/w) aqueous SBECD to obtain samples having a concentration suitable for HPLC analysis. The samples were analyzed by HPLC using column Symmetry Shield C18 3.5 μ, 50×4.6 mm (Waters), water (0.1% TFA)—acetonitrile (0.1% TFA) gradient and UV detection at 225 nm and 260 nm. The concentrations of SN-38 in the samples were determined by comparison of the area under the peak with the results obtained from analysis of standard solutions.
A sample of 4 g of 60% (w/w) aqueous SBECD was mixed with 2 mg of SN-38, and the mixture was incubated at 34° C. with constant mixing for 48 hours. The mixture was then filtered through 0.2 micrometer nylon filter and analyzed by HPLC as described in Example 1. The concentration of SN-38 in solution was 0.16 mg/g.

[3] = Pharmacokinetics of SN-38 and SN-38G after i.v. dosing of SN-38 in 40% SBECD; assay type: in vivo, Female Sprague-Dawley rats; conditions: female, Sprague-Dawley, rat, in vivo, iv
Protocol: Female Sprague-Dawley rats, 4 animals per group received i.v. injections of SN-38 (doses 0.65 mg/kg and 2 mg/kg) in 40% SBECD. The SN-38 solution for the treatment was prepared by the dilution of concentrated composition of the Example 1 with water. The blood plasma samples were collected from each group of animals, extracted using liquid extraction with cold methanol/acetonitrile mixture (1:1 v/v), and analyzed using a HPLC method with fluorescent detection. The results, including levels of SN-38 and SN-38G in plasma and calculated values of area under the curve (AUC) for SN-38 and SN-38G are presented in Tables 5 and 6 below.

- concentration of SN-38 in solution [2]: 0.16 mg/g
- AUC ([3]; 0.65 mg/kg): 106 ng·h/mL
- Ratio AUC SN-38/SN-38G ([3]; 0.65 mg/kg): 0.39
- concentration at 0.17 h ([3]; 0.65 mg/kg): 157 ng/mL
- concentration at 0.5 h ([3]; 0.65 mg/kg): 41.3 ng/mL
- concentration at 0.75 h ([3]; 0.65 mg/kg): 26.1 ng/mL
- concentration at 1 h ([3]; 0.65 mg/kg): 18.2 ng/mL
- concentration at 3 h ([3]; 0.65 mg/kg): 5.8 ng/mL
- concentration at 6 h ([3]; 0.65 mg/kg): 1.2 ng/mL
- AUC ([3]; 2 mg/kg): 323 ng·h/mL
- concentration at 0.17 h ([3]; 2 mg/kg): 625 ng/mL
- concentration at 0.5 h ([3]; 2 mg/kg): 157 ng/mL
- concentration at 0.75 h ([3]; 2 mg/kg): 51.4 ng/mL
- concentration at 1 h ([3]; 2 mg/kg): 29.8 ng/mL
- concentration at 3 h ([3]; 2 mg/kg): 5.5 ng/mL
- concentration at 6 h ([3]; 2 mg/kg): 5.3 ng/mL
Structure (SMILES): CCc1c2c(nc3ccc(O)cc13)-c1cc3c(c(=O)n1C2)COC(=O)[C@]3(O)CC [SN-38, (4S)-4,11-Diethyl-4,9-dihydroxy-1H-pyrano[3′,4′:6,7]indolizino[1,2-b]quinoline-3,14(4H,12H)dione]
- activity relative to irinotecan (topoisomerase I enzyme): up to 1000 times
- Tumor volume ([1]; day 0 of treatment): 0.123 (0.010) cm^3
- Tumor volume ([1]; day 4 of treatment): 0.128 (0.010) cm^3
- Tumor volume ([1]; day 6 of treatment): 0.140 (0.011) cm^3
- Tumor volume ([1]; day 8 of treatment): 0.142 (0.012) cm^3
- Tumor volume ([1]; day 11 of treatment): 0.163 (0.017) cm^3
- Tumor volume ([1]; day 13 of treatment): 0.185 (0.019) cm^3
- Tumor volume ([1]; day 15 of treatment): 0.195 (0.020) cm^3
- Tumor volume ([1]; day 18 of treatment): 0.217 (0.024) cm^3
- Tumor volume ([1]; day 20 of treatment): 0.284 (0.040) cm^3
- Tumor volume ([1]; day 22 of treatment): 0.349 (0.055) cm^3
- Tumor volume increase ([1]; day 0): 100 Percentage
- Tumor volume increase ([1]; day 4): 105 (4) Percentage
- Tumor volume increase ([1]; day 6): 115 (6) Percentage
- Tumor volume increase ([1]; day 8): 117 (7) Percentage
- Tumor volume increase ([1]; day 11): 133 (11) Percentage
- Tumor volume increase ([1]; day 13): 150 (10) Percentage
- Tumor volume increase ([1]; day 15): 157 (10) Percentage
- Tumor volume increase ([1]; day 18): 175 (12) Percentage
- Tumor volume increase ([1]; day 20): 224 (22) Percentage
- Tumor volume increase ([1]; day 22): 271 (29) Percentage
